Measurements reported in PubChem BioAssay (NCI).
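GI50 marks 50% less growth. TGI: concentration producing complete growth inhibition.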

Columns and labels:
Assay in all cases: NCI tumour cell line growth inhibition, 384-well format
786-0 renal = test system: 786-0 renal
A498 renal = test system: A498 renal
A549 NSCLC = test system: A549 NSCLC
ACHN renal = test system: ACHN renal
BT-549 breast = test system: BT-549 breast
CAKI-1 renal = test system: CAKI-1 renal
CCRF-CEM leukemia = test system: CCRF-CEM leukemia
COLO 205 colon = test system: COLO 205 colon
DU-145 prostate = test system: DU-145 prostate
EKVX NSCLC = test system: EKVX NSCLC
HCC-2998 colon = test system: HCC-2998 colon
HCT-116 colon = test system: HCT-116 colon
HCT-15 colon = test system: HCT-15 colon
HL-60(TB) leukemia = test system: HL-60(TB) leukemia
HOP-62 NSCLC = test system: HOP-62 NSCLC
HOP-92 NSCLC = test system: HOP-92 NSCLC
HS 578T breast = test system: HS 578T breast
HT29 colon = test system: HT29 colon
IGROV1 ovarian = test system: IGROV1 ovarian
K-562 leukemia = test system: K-562 leukemia
KM12 colon = test system: KM12 colon
LOX IMVI melanoma = test system: LOX IMVI melanoma
M14 melanoma = test system: M14 melanoma
MALME-3M melanoma = test system: MALME-3M melanoma
MCF7 breast = test system: MCF7 breast
MDA-MB-231 breast = test system: MDA-MB-231 breast
MDA-MB-435 melanoma = test system: MDA-MB-435 melanoma
MDA-MB-468 breast = test system: MDA-MB-468 breast
MOLT-4 leukemia = test system: MOLT-4 leukemia
NCI-H226 lung = test system: NCI-H226 lung
NCI-H23 lung = test system: NCI-H23 lung
NCI-H322M lung = test system: NCI-H322M lung
NCI-H460 NSCLC = test system: NCI-H460 NSCLC
NCI-H522 lung = test system: NCI-H522 lung
NCI/ADR-RES ovarian = test system: NCI/ADR-RES ovarian
OVCAR-3 ovarian = test system: OVCAR-3 ovarian
OVCAR-4 ovarian = test system: OVCAR-4 ovarian
OVCAR-8 ovarian = test system: OVCAR-8 ovarian
PC-3 prostate = test system: PC-3 prostate
RPMI-8226 leukemia = test system: RPMI-8226 leukemia
RXF 393 renal = test system: RXF 393 renal
SF-268 CNS = test system: SF-268 CNS
SF-295 CNS = test system: SF-295 CNS
SF-539 CNS = test system: SF-539 CNS
SK-MEL-28 melanoma = test system: SK-MEL-28 melanoma
SK-MEL-5 melanoma = test system: SK-MEL-5 melanoma
SK-OV-3 ovarian = test system: SK-OV-3 ovarian
SN12C renal = test system: SN12C renal
SNB-19 CNS = test system: SNB-19 CNS
SNB-75 CNS = test system: SNB-75 CNS
SR leukemia = test system: SR leukemia
SW-620 colon = test system: SW-620 colon
T-47D breast = test system: T-47D breast
TK-10 renal = test system: TK-10 renal
U251 glioblastoma = test system: U251 glioblastoma
UACC-257 melanoma = test system: UACC-257 melanoma
UACC-62 melanoma = test system: UACC-62 melanoma
UO-31 renal = test system: UO-31 renal

For CN1CCN(c2ccc(Nc3ncc4cc(C#N)c(=O)n(C5CCCC5)c4n3)cc2)CC1, the GI50 ([…]-0 renal) was 0.755 µM, the TGI (786-0 renal) was 28.2 µM and the GI50 (A498 renal) was 1.09 µM. It also gave a TGI (A498 renal) of 7.46 µM, a GI50 (A549 NSCLC) of 1.04 µM and a TGI (A549 NSCLC) of 16.1 µM. For the same molecule, the GI50 (ACHN renal) was 0.521 µM, the TGI (ACHN renal) was 22.9 µM and the GI50 (BT-549 breast) was 1.75 µM. For the same molecule, the TGI (BT-549 breast) was 12.2 µM, the GI50 (CAKI-1 renal) was 0.259 µM and the TGI (CAKI-1 renal) was 3.09 µM. It also gave a GI50 (CCRF-CEM leukemia) of 0.365 µM, a TGI (CCRF-CEM leukemia) of 1.72 µM and a GI50 (COLO 205 colon) of 0.981 µM. The TGI (COLO 205 colon) was over 100 µM, the GI50 (DU-145 prostate) was 1.56 µM and the TGI (DU-145 prostate) was 25.8 µM. It also gave a GI50 (EKVX NSCLC) of 6.55 µM, a TGI (EKVX NSCLC) of 27.9 µM and a GI50 (HCC-2998 colon) of 1.8 µM. The TGI (HCC-2998 colon) was 18.5 µM, the GI50 (HCT-116 colon) was 0.372 µM and the TGI (HCT-116 colon) was 11.1 µM. It also gave a GI50 (HCT-15 colon) of 0.837 µM, a TGI (HCT-15 colon) of 15.4 µM and a GI50 (HL-60(TB) leukemia) of 0.0949 µM. The TGI (HL-60(TB) leukemia) was 1.38 µM, the GI50 (HOP-62 NSCLC) was 2.43 µM and the TGI (HOP-62 NSCLC) was 14.6 µM. The GI50 (HOP-92 NSCLC) was 2.03 µM, the TGI (HOP-92 NSCLC) was 29 µM and the GI50 (HS 578T breast) was 1.42 µM. For the same molecule, the TGI (HS 578T breast) was 3.95 µM, the GI50 (HT29 colon) was 1.18 µM and the TGI (HT29 colon) was over 100 µM. It also gave a GI50 (IGROV1 ovarian) of 0.674 µM, a TGI (IGROV1 ovarian) of 11 µM and a GI50 (K-562 leukemia) of 0.462 µM. It also gave a TGI (K-562 leukemia) of over 100 µM, a GI50 (KM12 colon) of 1.02 µM and a TGI (KM12 colon) of 55.5 µM. The GI50 (LOX IMVI melanoma) was 0.799 µM, the TGI (LOX IMVI melanoma) was 13.9 µM and the GI50 (M14 melanoma) was 1.07 µM. It also gave a TGI (M14 melanoma) of over 100 µM, a GI50 (MALME-3M melanoma) of 0.535 µM and a TGI (MALME-3M melanoma) of 92.9 µM. For the same molecule, the GI50 (MCF7 breast) was 0.299 µM, the TGI (MCF7 breast) was 3.68 µM and the GI50 (MDA-MB-231 breast) was 0.718 µM. It also gave a TGI (MDA-MB-231 breast) of over 100 µM, a GI50 (MDA-MB-435 melanoma) of 3.37 µM and a TGI (MDA-MB-435 melanoma) of 66.9 µM. It also gave a GI50 (MDA-MB-468 breast) of 1.89 µM, a TGI (MDA-MB-468 breast) of 4.31 µM and a GI50 (MOLT-4 leukemia) of 0.141 µM. The TGI (MOLT-4 leukemia) was 0.532 µM, the GI50 (NCI-H226 lung) was 0.457 µM and the TGI (NCI-H226 lung) was 13.8 µM. It also gave a GI50 (NCI-H23 lung) of 1.23 µM, a TGI (NCI-H23 lung) of 18.7 µM and a GI50 (NCI-H322M lung) of 2.22 µM. The TGI (NCI-H322M lung) was 47.8 µM, the GI50 (NCI-H460 NSCLC) was 0.271 µM and the TGI (NCI-H460 NSCLC) was 11 µM. The GI50 (NCI-H522 lung) was 1.2 µM, the TGI (NCI-H522 lung) was 18.9 µM and the GI50 (NCI/ADR-RES ovarian) was 8.59 µM. It also gave a TGI (NCI/ADR-RES ovarian) of 34.9 µM, a GI50 (OVCAR-3 ovarian) of 3.1 µM and a TGI (OVCAR-3 ovarian) of 14.4 µM. For the same molecule, the GI50 (OVCAR-4 ovarian) was 27.1 µM, the TGI (OVCAR-4 ovarian) was over 100 µM and the GI50 (OVCAR-8 ovarian) was 4.65 µM. It also gave a TGI (OVCAR-8 ovarian) of 37.2 µM, a GI50 (PC-3 prostate) of 0.819 µM and a TGI (PC-3 prostate) of 46.5 µM. The GI50 (RPMI-8226 leukemia) was 0.0798 µM, the TGI (RPMI-8226 leukemia) was 0.818 µM and the GI50 (RXF 393 renal) was 0.727 µM. For the same molecule, the TGI (RXF 393 renal) was 3.14 µM, the GI50 (SF-268 CNS) was 1.65 µM and the TGI (SF-268 CNS) was 12.6 µM. The GI50 (SF-295 CNS) was 0.632 µM, the TGI (SF-295 CNS) was 19.8 µM and the GI50 (SF-539 CNS) was 2.23 µM. It also gave a TGI (SF-539 CNS) of 13.2 µM, a GI50 (SK-MEL-28 melanoma) of 8.46 µM and a TGI (SK-MEL-28 melanoma) of 72.1 µM. It also gave a GI50 (SK-MEL-5 melanoma) of 10.9 µM, a TGI (SK-MEL-5 melanoma) of 26.6 µM and a GI50 (SK-OV-3 ovarian) of 1.04 µM. The TGI (SK-OV-3 ovarian) was 29.9 µM, the GI50 (SN12C renal) was 0.271 µM and the TGI (SN12C renal) was 4.43 µM. The GI50 (SNB-19 CNS) was 3.17 µM, the TGI (SNB-19 CNS) was over 100 µM and the GI50 (SNB-75 CNS) was 1.8 µM. The TGI (SNB-75 CNS) was 10.9 µM, the GI50 (SR leukemia) was 0.498 µM and the TGI (SR leukemia) was 1 µM. For the same molecule, the GI50 (SW-620 colon) was 0.728 µM, the TGI (SW-620 colon) was 28 µM and the GI50 (T-47D breast) was 7.4 µM. It also gave a TGI (T-47D breast) of over 100 µM, a GI50 (TK-10 renal) of 1.32 µM and a TGI (TK-10 renal) of 12.4 µM. The GI50 (U251 glioblastoma) was 1.6 µM, the TGI (U251 glioblastoma) was 22.4 µM and the GI50 (UACC-257 melanoma) was 10.8 µM. It also gave a TGI (UACC-257 melanoma) of 32.1 µM, a GI50 (UACC-62 melanoma) of 1.4 µM and a TGI (UACC-62 melanoma) of 23.6 µM. For the same molecule, the GI50 (UO-31 renal) was 0.551 µM and the TGI (UO-31 renal) was 14.8 µM.
